Measurements: patent US20230017045A1, “PYRIDINE AND PYRIMIDINE CARBOXYLATE HERBICIDES AND METHODS OF USE THEREOF” (Dow AgroSciences LLC, priority 2017, published 2023)
Like-named read-outs stand apart in the source and are kept apart here.

System: test plant species
Assay: Post-emergent herbicidal activity test (greenhouse, foliar spray, visual growth reduction)
Type: in vivo
Settings: post-emergence, 336 h, 140 g ai/ha
How it was run: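 Plants grown in greenhouse (15 h photoperiod, 23-29° C day/22-28° C night) to first or second true leaf stage were sprayed overhead with compound in acetone/water/isopropanol/DMSO/crop oil/X-77 carrier at 187 L/ha. Injury was scored visually after 14 d on a 0-100% scale versus solvent-blank and untreated controls.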

[1] = ECHCG: barnyardgrass (Echinochloa crus-galli), 14 days after application, read-out: Visual Growth Reduction (%) 14 Days After Application, ECHCG
[2] = IPOHE: ivy-leaf morning glory (Ipomoea hederacea), 14 days after application, read-out: Visual Growth Reduction (%) 14 Days After Application, IPOHE
[3] = KCHSC: kochia (Bassia scoparia), 14 days after application, read-out: Visual Growth Reduction (%) 14 Days After Application, KCHSC
[4] = ORYSA: rice (Oryza sativa), 14 days after application, read-out: Visual Growth Reduction (%) 14 Days After Application, ORYSA
[5] = SETFA: giant foxtail (Setaria faberi), 14 days after application, read-out: Visual Growth Reduction (%) 14 Days After Application, SETFA
[6] = SORVU: grain sorghum (Sorghum vulgare), 14 days after application, read-out: Visual Growth Reduction (%) 14 Days After Application, SORVU
[7] = STEME: common chickweed (Stellaria media), 14 days after application, read-out: Visual Growth Reduction (%) 14 Days After Application, STEME
[8] = TRZAS: wheat, spring (Triticum aestivum), 14 days after application, read-out: Visual Growth Reduction (%) 14 Days After Application, TRZAS
[9] = blackgrass (Alopecurus myosuroides), 14 Days After Application, read-out: Visual Growth Reduction (%) ALOMY
[10] = crabgrass (Digitaria sanguinalis), 14 Days After Application, read-out: Visual Growth Reduction (%) DIGSA
[11] = lambsquarters (Chenopodium album), 14 Days After Application, read-out: Visual Growth Reduction (%) CHEAL
[12] = redroot pigweed (Amaranthus retroflexus), 14 Days After Application, read-out: Visual Growth Reduction (%) AMARE
[13] = wild oat (Avena fatua), 14 Days After Application, read-out: Visual Growth Reduction (%) AVEFA
[14] = yellow nutsedge (Cyperus esculentus), 14 Days After Application, read-out: Visual Growth Reduction (%) CYPES
[15] = ALOMY: blackgrass (Alopecurus myosuroides), 14 days after application, read-out: Visual Growth Reduction (%) 14 Days After Application, ALOMY
[16] = AMARE: redroot pigweed (Amaranthus retroflexus), 14 days after application, read-out: Visual Growth Reduction (%) 14 Days After Application, AMARE
[17] = AVEFA: wild oat (Avena fatua), 14 days after application, read-out: Visual Growth Reduction (%) 14 Days After Application, AVEFA
[18] = CHEAL: lambsquarters (Chenopodium album), 14 days after application, read-out: Visual Growth Reduction (%) 14 Days After Application, CHEAL
[19] = CIRAR: canada thistle (Cirsium arvense), 14 days after application, read-out: Visual Growth Reduction (%) 14 Days After Application, CIRAR
[20] = CYPES: yellow nutsedge (Cyperus esculentus), 14 days after application, read-out: Visual Growth Reduction (%) 14 Days After Application, CYPES
[21] = DIGSA: crabgrass (Digitaria sanguinalis), 14 days after application, read-out: Visual Growth Reduction (%) 14 Days After Application, DIGSA
[22] = canada thistle (Cirsium arvense), 14 Days After Application, read-out: Visual Growth Reduction (%) CIRAR

| Structure (SMILES) | pest or weed control at 140 g/ha [1] [%] | pest or weed control at 140 g/ha [2] [%] | pest or weed control at 140 g/ha [3] [%] | pest or weed control at 140 g/ha [4] [%] | pest or weed control at 140 g/ha [5] [%] | pest or weed control at 140 g/ha [6] [%] | pest or weed control at 140 g/ha [7] [%] | pest or weed control at 140 g/ha [8] [%] | pest or weed control at 140 g/ha [9] [%] | pest or weed control at 140 g/ha [10] [%] | pest or weed control at 140 g/ha [11] [%] | pest or weed control at 140 g/ha [12] [%] | pest or weed control at 140 g/ha [13] [%] | pest or weed control at 140 g/ha [14] [%] | pest or weed control at 140 g/ha [15] [%] | pest or weed control at 140 g/ha [16] [%] | pest or weed control at 140 g/ha [17] [%] | pest or weed control at 140 g/ha [18] [%] | pest or weed control at 140 g/ha [19] [%] | pest or weed control at 140 g/ha [20] [%] | also measured |
| --- | --- | --- | --- | --- | --- | --- | --- | --- | --- | --- | --- | --- | --- | --- | --- | --- | --- | --- | --- | --- | --- |
| O=C(O)c1nc(-c2cc3c(cc2F)OC(F)(F)O3)c(F)cc1Cl [F334, 3-Chloro-5-fluoro-6-(2,2,6-trifluorobenzo[d][1,3]dioxol-5-yl)picolinic acid] | 75 to 84 | 95 to 100 | 60 to 74 | 45 to 59 | 75 to 84 | 95 to 100 | 0 to 29 | 75 to 84 | 75 to 84 | 95 to 100 | 75 to 84 | 75 to 84 | 60 to 74 | 60 to 74 |  |  |  |  |  |  |  |
| C#Cc1cc(-c2ccc(C(F)(F)F)cc2Cl)nc(C(=O)OC)c1Cl [F40, methyl 3-chloro-6-(2-chloro-4-(trifluoromethyl)phenyl)-4-ethynylpicolinate] | 0 to 29 | 30 to 44 | 0 to 29 | 0 to 29 | 0 to 29 | 60 to 74 | 0 to 29 | 0 to 29 |  |  |  |  |  |  | 0 to 29 | 0 to 29 | 0 to 29 | 0 to 29 | 0 to 29 | 0 to 29 | pest or weed control at 140 g/ha [21]: 0 to 29% |
| COC(=O)c1nc(-c2ccc3c(c2C)OC(F)(F)O3)c(F)cc1Cl [F233, Methyl 3-chloro-6-(2,2-difluoro-4-methylbenzo[d][1,3]dioxol-5-yl)-5-fluoropicolinate] | 45 to 59 | 95 to 100 | 85 to 94 | 0 to 29 | 85 to 94 | 85 to 94 | 45 to 59 | 60 to 74 | 75 to 84 | 95 to 100 | 95 to 100 | 95 to 100 | 45 to 59 | 45 to 59 |  |  |  |  |  |  | pest or weed control at 140 g/ha [22]: 95 to 100% |
| COC(=O)c1nc(-c2ccc(C(F)(F)F)cc2Cl)cc(Cl)c1Cl [F108, methyl 3,4-dichloro-6-(2-chloro-4-(trifluoromethyl)phenyl)picolinate] | 0 to 29 | 30 to 44 | 0 to 29 | 0 to 29 | 0 to 29 | 0 to 29 |  | 0 to 29 |  |  |  |  |  |  | 0 to 29 | 0 to 29 | 0 to 29 | 0 to 29 | 0 to 29 | 0 to 29 | pest or weed control at 140 g/ha [21]: 0 to 29% |
| COC(=O)c1nc(-c2cc3c(cc2Cl)OC(F)(F)O3)ncc1Cl [F232, Methyl 5-chloro-2-(6-chloro-2,2-difluorobenzo[d][1,3]dioxol-5-yl)pyrimidine-4-carboxylate] | 75 to 84 | 95 to 100 | 45 to 59 | 0 to 29 | 75 to 84 | 85 to 94 | 45 to 59 | 45 to 59 | 0 to 29 | 95 to 100 | 95 to 100 | 60 to 74 | 0 to 29 | 0 to 29 |  |  |  |  |  |  | pest or weed control at 140 g/ha [22]: 85 to 94% |
| COC(=O)c1nc(-c2c(Cl)cc(C(F)(F)F)cc2SC)ccc1Cl [F122, methyl 3-chloro-6-(2-chloro-6-(methylthio)-4-(trifluoromethyl)phenyl)picolinate] | 45 to 59 | 95 to 100 | 75 to 84 | 0 to 29 | 85 to 94 | 75 to 84 | 0 to 29 | 0 to 29 |  |  |  |  |  |  | 0 to 29 | 95 to 100 | 0 to 29 | 60 to 74 | 60 to 74 | 0 to 29 | pest or weed control at 140 g/ha [21]: 30 to 44% |
| COC(=O)c1nc(-c2ccc(C(F)(F)F)cc2Cl)cc(C#N)c1Cl [F11, Methyl 3-chloro-6-(2-chloro-4-(trifluoromethyl)phenyl)-4-cyanopicolinate] |  |  |  |  |  |  |  |  |  |  |  |  |  |  | 0 to 29 | 0 to 29 | 0 to 29 | 0 to 29 | 30 to 44 | 0 to 29 | pest or weed control at 140 g/ha [21]: 0 to 29%; pest or weed control at 140 g/ha (barnyardgrass (Echinochloa crus-galli), 14 Days After Application, read-out: Visual Growth Reduction (%) ECHCG): 0 to 29%; pest or weed control at 140 g/ha (giant foxtail (Setaria faberi), 14 Days After Application, read-out: Visual Growth Reduction (%) SETFA): 0 to 29%; pest or weed control at 140 g/ha (ivy-leaf morning glory (Ipomoea hederacea), 14 Days After Application, read-out: Visual Growth Reduction (%) IPOHE): 30 to 44%; pest or weed control at 140 g/ha (johnsongrass (Sorghum vulgare), 14 Days After Application, read-out: Visual Growth Reduction (%) SORVU): 0 to 29%; pest or weed control at 140 g/ha (kochia (Bassia scoparia), 14 Days After Application, read-out: Visual Growth Reduction (%) KCHSC): 0 to 29%; pest or weed control at 140 g/ha (rice (Oryza sativa), 14 Days After Application, read-out: Visual Growth Reduction (%) ORYSA): 0 to 29%; pest or weed control at 140 g/ha (wheat, spring (Triticum aestivum), 14 Days After Application, read-out: Visual Growth Reduction (%) TRZAS): 0 to 29% |
| COC(=O)c1nc(-c2cc3c(cc2F)OC(F)(F)O3)c(F)cc1OC [F336, Methyl 5-fluoro-3-methoxy-6-(2,2,6-trifluorobenzo[d][1,3]dioxol-5-yl)picolinate] | 0 to 29 | 0 to 29 | 0 to 29 | 0 to 29 | 0 to 29 | 75 to 84 | 0 to 29 | 30 to 44 | 0 to 29 | 60 to 74 | 30 to 44 | 30 to 44 | 0 to 29 | 0 to 29 |  |  |  |  |  |  |  |
| COC(=O)c1nc(-c2cc(F)c(C(F)(F)F)cc2OC)c(F)cc1Cl [F359, Methyl 3-chloro-5-fluoro-6-(5-fluoro-2-methoxy-4-(trifluoromethyl)phenyl)picolinate] | 95 to 100 | 95 to 100 | 85 to 94 | 0 to 29 | 95 to 100 | 85 to 94 | 0 to 29 | 60 to 74 | 30 to 44 | 30 to 44 | 95 to 100 | 95 to 100 | 75 to 84 | 0 to 29 |  |  |  |  |  |  | pest or weed control at 140 g/ha [22]: 75 to 84% |
